Assay results taken from ChEMBL document CHEMBL2434929, “Thermoresponsive dendrimers based on oligoethylene glycols: design, synthesis and cytotoxic activity against MCF-7 breast cancer cells” (Eur J Med Chem, 2013).
≈ marks a conversion by molar mass, not a printed value.

Columns and labels:
[1] = system: MCF7; experiment: Cytotoxicity against human MCF7 cells after 72 hrs by SRB-U assay; assay type: functional, cell-based; settings: MCF7, 72 h
[2] = system: MCF7; experiment: Cytotoxicity against human MCF7 cells assessed as viable cells at 0.1 to 1000 ug/ml after 72 hrs by SRB-U assay; assay type: functional

**Q.** Which results are given for `CCOCCOCCOCCOc1cc(COCCOCCOCCOc2c(Br)c(Br)c(OCCOCCOCCOCc3cc(OCCOCCOCCOCC)c(OCCOCCOCCOCC)c(OCCOCCOCCOCC)c3)c(Br)c2Br)cc(OCCOCCOCCOCC)c1OCCOCCOCCOCC`?
**A.** IC50 [1]: 25.4 µg/mL (≈ 13.2 µM); Activity [2]: 5.1%

**Q.** How did the IC50 [1] turn out when `CCOCCOCCOCCOc1cc(COc2c(Br)c(Br)c(OCc3cc(OCCOCCOCCOCC)c(OCCOCCOCCOCC)c(OCCOCCOCCOCC)c3)c(Br)c2Br)cc(OCCOCCOCCOCC)c1OCCOCCOCCOCC` was run?
**A.** Its IC50 is 1.07 µg/mL (≈ 0.643 µM).

**Q.** What about the Activity [2] of the same compound?
**A.** The Activity was 1.97%.

**Q.** What does the source list for `CCOCCOCCOCCOc1c(Br)c(Br)c(OCCOCCOCCOCC)c(Br)c1Br`?
**A.** IC50 [1]: 13.8 µg/mL (≈ 18.5 µM); Activity [2]: 11.22%
